Measured values reported in the supplement of paper PMC12137928.
Structures can show the parent of a compound that is named as a salt.

Tested on: HCT116
Settings: 72 h
Outline: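 For IC50 and maximal efficacy, four-parameter Hill fits were used. Input values were CellTiter-Glo luminescence from HCT116 cells seeded at 250 per well in 1536-well plates, normalized to vehicle (0%) and positive control (-100%). Pattern correction followed normalization.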

IC50 cell viability (ICRF193 0 nM) | IC50 cell viability (ICRF193 200 nM) | Structure (SMILES)
> 45.8 µM | > 45.8 µM | C=CC[N+]1([C@H]2C[C@H]3[C@@H]4CC[C@H]5C[C@H](OC(C)=O)[C@@H](N6CCCCC6)C[C@]5(C)[C@H]4CC[C@]3(C)[C@H]2OC(=O)CC)CCCCC1 [Rapacuronium bromide]
> 45.8 µM | > 45.8 µM | C#CCN[C@@H]1CCc2ccccc21 [Rasagiline mesylate]
> 45.8 µM | > 45.8 µM | O=C(NC(Cc1cc(=O)[nH]c2ccccc12)C(=O)O)c1ccc(Cl)cc1 (centres undefined) [Rebamipide]
> 45.8 µM | > 45.8 µM | CCOc1ccccc1OC(c1ccccc1)C1CNCCO1 (centres undefined) [Reboxetine mesylate]
> 45.8 µM | > 45.8 µM | CCOc1cc(CC(=O)N[C@@H](CC(C)C)c2ccccc2N2CCCCC2)ccc1C(=O)O [Repaglinide]
> 45.8 µM | > 45.8 µM | COC(=O)[C@H]1[C@H]2C[C@@H]3c4[nH]c5cc(OC)ccc5c4CCN3C[C@H]2C[C@@H](OC(=O)/C=C/c2cc(OC)c(OC)c(OC)c2)[C@@H]1OC [Rescinnamin]
> 45.8 µM | > 45.8 µM | CCCC(=O)O[C@]1(C(=O)CC)CC[C@H]2[C@@H]3CCC4=CC(=O)CC[C@]4(C)[C@H]3[C@@H](O)C[C@@]21C [Resocortol butyrate]
> 45.8 µM | > 45.8 µM | CC(=O)Oc1cccc(O)c1 [Resorcinol monoacetate]
> 45.8 µM | > 45.8 µM | C=C[C@]1(C)C[C@@H](OC(=O)CS[C@@H]2C[C@H]3CC[C@@H](C2)N3C)[C@]2(C)[C@H](C)CC[C@]3(CCC(=O)[C@H]32)[C@@H](C)[C@@H]1O [Retapamulin]
> 45.8 µM | > 45.8 µM | CCCCCCCCCCCCCCCC(=O)OC/C=C(C)/C=C/C=C(C)/C=C/C1=C(C)CCCC1(C)C [Retinyl palmitate]
> 45.8 µM | > 45.8 µM | NC(=O)c1ncn([C@@H]2O[C@H](CO)[C@@H](O)[C@H]2O)n1 [Ribavirin]
> 45.8 µM | > 45.8 µM | CN(C)C(=O)c1cc2cnc(Nc3ccc(N4CCNCC4)cn3)nc2n1C1CCCC1 [Ribociclib (LEE011)]
> 45.8 µM | > 45.8 µM | NC[C@H]1O[C@H](O[C@H]2[C@H](O[C@@H]3O[C@H](CO)[C@@H](O)[C@H]3O)[C@@H](O)[C@H](N)C[C@@H]2N)[C@H](N)[C@@H](O)[C@@H]1O [Ribostamycin sulfate]
> 45.8 µM | > 45.8 µM | CO[C@H]1/C=C/O[C@@]2(C)Oc3c(C)c(O)c4c(c3C2=O)C2=NC3(CCN(CC(C)C)CC3)NC2=C(NC(=O)/C(C)=C\C=C\[C@H](C)[C@H](O)[C@@H](C)[C@@H](O)[C@@H](C)[C@H](OC(C)=O)[C@@H]1C)C4=O [Rifabutin]
> 45.8 µM | > 45.8 µM | CO[C@H]1/C=C/O[C@@]2(C)Oc3c(C)c(O)c4c(O)c(c(/C=N/N5CCN(C6CCCC6)CC5)c(O)c4c3C2=O)NC(=O)/C(C)=C\C=C\[C@H](C)[C@H](O)[C@@H](C)[C@@H](O)[C@@H](C)[C@H](OC(C)=O)[C@@H]1C [Rifapentine]
> 45.8 µM | > 45.8 µM | CO[C@H]1/C=C/O[C@@]2(C)Oc3c(C)c(O)c4c(O)c(c5c(nc6cc(C)ccn65)c4c3C2=O)NC(=O)/C(C)=C\C=C\[C@H](C)[C@H](O)[C@@H](C)[C@@H](O)[C@@H](C)[C@H](OC(C)=O)[C@@H]1C [Rifaximin]
> 45.8 µM | > 45.8 µM | CC(N)C12CC3CC(CC(C3)C1)C2 (centres undefined) [Rimantadine]
> 45.8 µM | > 45.8 µM | CCC(=O)[C@@]1(C)[C@H](C)C[C@H]2[C@@H]3CCC4=CC(=O)C=C[C@]4(C)[C@H]3[C@@H](O)C[C@@]21C [Rimexolone]
> 45.8 µM | > 45.8 µM | COC(=O)N(C)c1c(N)nc(-c2nn(Cc3ccccc3F)c3ncccc23)nc1N [Riociguat]
> 45.8 µM | > 45.8 µM | C[C@H]1CNCCCN1S(=O)(=O)c1cccc2cncc(F)c12 [Ripasudil]
> 45.8 µM | > 45.8 µM | CCCCCOc1ccc(C2SC(=O)NC2=O)cc1OCC (centres undefined) [Risarestat]
> 45.8 µM | > 45.8 µM | O=P(O)(O)C(O)(Cc1cccnc1)P(=O)(O)O [Risedronate sodium]
> 45.8 µM | > 45.8 µM | Cc1nc2n(c(=O)c1CCN1CCC(c3noc4cc(F)ccc34)CC1)CCCC2 [Risperidone]
> 45.8 µM | > 45.8 µM | CC(NCCc1ccc(O)cc1)C(O)c1ccc(O)cc1 (centres undefined) [Ritodrine hydrochloride]
> 45.8 µM | > 45.8 µM | O=C(NC[C@H]1CN(c2ccc(N3CCOCC3=O)cc2)C(=O)O1)c1ccc(Cl)s1 [Rivaroxaban]
> 45.8 µM | > 45.8 µM | CN(C)CCc1c[nH]c2ccc(Cn3cncn3)cc12 [Rizatriptan Benzoate]
> 45.8 µM | > 45.8 µM | Cc1cccc(C)c1N(CCCc1cccnc1)C(=O)C(C)N (centres undefined) [Ro 22-9194]
> 45.8 µM | > 45.8 µM | N=C(N/N=C/c1ccc(Cl)cc1)N/N=C/c1ccc(Cl)cc1 [Robenidine]

IC50 cell viability (ICRF193 0 nM) | IC50 cell viability (ICRF193 200 nM) | Structure (SMILES)
> 45.8 µM | > 45.8 µM | C=CC[N+]1([C@H]2C[C@H]3[C@@H]4CC[C@H]5C[C@H](O)[C@@H](N6CCOCC6)C[C@]5(C)[C@H]4CC[C@]3(C)[C@H]2OC(C)=O)CCCC1 [Rocuronium bromide]
> 45.8 µM | > 45.8 µM | CS(=O)(=O)c1ccc(C2=C(c3ccccc3)C(=O)OC2)cc1 [Rofecoxib]
> 45.8 µM | > 45.8 µM | O=C(Nc1c(Cl)cncc1Cl)c1ccc(OC(F)F)c(OCC2CC2)c1 [Roflumilast]
> 45.8 µM | > 45.8 µM | COc1ccc(C2CNC(=O)C2)cc1OC1CCCC1 (centres undefined) [Rolipram]
> 45.8 µM | > 45.8 µM | CN(C)[C@@H]1C(O)=C(C(=O)NCN2CCCC2)C(=O)[C@@]2(O)C(O)=C3C(=O)c4c(O)cccc4[C@@](C)(O)[C@H]3C[C@@H]12 [Rolitetracycline]
> 45.8 µM | > 45.8 µM | CCCN(CCC)CCc1cccc2c1CC(=O)N2 [Ropinirole]
> 45.8 µM | > 45.8 µM | CCCN1CCCC[C@H]1C(=O)Nc1c(C)cccc1C [Ropivacaine hydrochloride]
> 45.8 µM | > 45.8 µM | CN(CCOc1ccc(CC2SC(=O)NC2=O)cc1)c1ccccn1 (centres undefined) [Rosiglitazone]
> 45.8 µM | > 45.8 µM | CC(C)c1nc(N(C)S(C)(=O)=O)nc(-c2ccc(F)cc2)c1/C=C/[C@@H](O)C[C@@H](O)CC(=O)O [Rosuvastatin calcium (Crestor)]
> 45.8 µM | > 45.8 µM | CCCN(CCc1cccs1)[C@H]1CCc2c(O)cccc2C1 [Rotigotine]
> 45.8 µM | > 45.8 µM | CC(=O)OCC(=O)NCCCOc1cccc(CN2CCCCC2)c1 [Roxatidine acetate hydrochloride]
> 45.8 µM | > 45.8 µM | CC[C@H]1OC(=O)[C@H](C)[C@@H](O[C@H]2C[C@@](C)(OC)[C@@H](O)[C@H](C)O2)[C@H](C)[C@@H](O[C@@H]2O[C@H](C)C[C@H](N(C)C)[C@H]2O)[C@](C)(O)C[C@@H](C)/C(=N\OCOCCOC)[C@H](C)[C@@H](O)[C@]1(C)O [Roxithromycin]
> 45.8 µM | > 45.8 µM | CNCc1ccc(-c2[nH]c3cc(F)cc4c3c2CCNC4=O)cc1 [Rucaparib]
> 45.8 µM | > 45.8 µM | NC(=O)c1cn(Cc2c(F)cccc2F)nn1 [Rufinamide]
> 45.8 µM | > 45.8 µM | C[C@@H]1O[C@@H](OC[C@H]2O[C@@H](Oc3c(-c4ccc(O)c(O)c4)oc4cc(O)cc(O)c4c3=O)[C@H](O)[C@@H](O)[C@@H]2O)[C@H](O)[C@H](O)[C@H]1O [Rutin trihydrate]
> 45.8 µM | > 45.8 µM | CC(OC(=O)OC1CCCCC1)OC(=O)C1=C(CSc2nnnn2CCN(C)C)CS[C@@H]2[C@H](NC(=O)Cc3csc(N)n3)C(=O)N12 (some centres undefined) [SCE 2174]
> 45.8 µM | > 45.8 µM | CCCCCCCCCCCCOC(=O)CS(=O)(=O)O [SODIUM LAURYL SULFOACETATE]
> 45.8 µM | > 45.8 µM | CCCCC(CC)CCC(CC(C)C)OS(=O)(=O)O (centres undefined) [SODIUM TETRADECYL SULFATE]
> 45.8 µM | > 45.8 µM | O=C1C(CC[S+]([O-])c2ccccc2)C(=O)N(c2ccccc2)N1c1ccccc1 (centres undefined) [SULFINPYRAZONE]
> 45.8 µM | > 45.8 µM | O=C1NS(=O)(=O)c2ccccc21 [Saccharin]
> 45.8 µM | > 45.8 µM | C[C@H](NCc1ccc(OCc2cccc(F)c2)cc1)C(N)=O [Safinamide]
> 45.8 µM | > 45.8 µM | CC(C)(C)NCC(O)c1ccc(O)c(CO)c1 (centres undefined) [Salbutamol]
> 45.8 µM | > 45.8 µM | OCc1ccccc1O [Salicyl alcohol]
> 45.8 µM | > 45.8 µM | NC(=O)c1ccccc1O [Salicylamide]
> 45.8 µM | > 45.8 µM | OC[C@H]1O[C@@H](OCCc2ccc(O)cc2)[C@H](O)[C@@H](O)[C@@H]1O [Salidroside]
> 45.8 µM | > 45.8 µM | O=C(Oc1ccccc1C(=O)O)c1ccccc1O [Salsalate]
> 45.8 µM | > 45.8 µM | O=C(O)c1cn(-c2ccc(F)cc2)c2cc(N3CCNCC3)c(F)cc2c1=O [Sarafloxacin hydrochloride]

Structure (SMILES) | IC50 cell viability (ICRF193 0 nM) | IC50 cell viability (ICRF193 200 nM)
CCN(C)C(=O)Oc1cccc([C@H](C)N(C)C)c1 [Rivastigmine tartrate] | > 45.8 µM | > 45.8 µM
CCOC(=O)/C=C(C)/C=C/C[C@@H](C)CCCC(C)C [S-Hydroprene] | > 45.8 µM | > 45.8 µM
